The term pKi denotes −log10 of the Ki, conventionally taken in molar units. As usually defined, the melting point is the temperature of the solid-liquid transition.

From US6544985B2, “Dihydro-benzo [b][1,4]diazepin-2-one derivatives” (Hoffman-La Roche Inc., priority 2001, dated 2003) come the findings set out here.

pKi: −log10 of the molar value.

The target in series [1] is T1, recombinant rat mGluR2 expressed in CHO cells (Rattus norvegicus, UniProt P31421).
T1 construct: expressed in transfected cells; vector pcDNA I-amp, construct pcD1mGR2
The series can be described thus: [3H]-LY354740 binding on mGlu2 transfected CHO cell membranes (displacement binding assay).
Description: These values were obtained by indirect measurement of the affinity of the compounds for the recombinant rat mGluR2 expressed in CHO cells using a displacement binding assay with 3H-LY354740.
Transfection and Cell Culture
cDNA encoding the rat mGlu2 receptor protein in pBluescript II was obtained from Prof. S. Nakanishi (Kyoto, Japan), and subcloned into the eukaryotic expression vector pcDNA I-amp from Invitrogen (NV Leek, The Netherlands). This vector construct (pcD1mGR2) was co-transfected with a psvNeo plasmid encoding the gene for neomycin resistance, into CHO cells by a modified calcium phosphate method described by Chen & Okayama (1988). The cells were maintained in Dulbecco's Modified Eagle medium with reduced L-glutamine (2 mM final concentration) and 10% dialysed foetal calf serum from Gibco BRL (Basel, Switzerland). Selection was made in the presence of G-418 (1000 ug/ml final). Clones were identified by reverse transcription of 5 μg total RNA, followed by PCR using mGlu2 receptor specific primers 5′-[sequence]-3′ and 5′-[sequence]-3′ in 60 mM Tris HCl (pH 10), 15 mM (NH4)2SO4, 2 mM MgCl2, 25 units/ml Taq Polymerase with 30 cycles annealing at 60° C. for 1 min., extention at 72° C. for 30 s, and 1 min. 95° C. denaturation.
Cells, cultured as above, were harvested and washed three times with cold PBS and frozen at −80° C. The pellet was resuspended in cold 20 mM HEPES-NaOH buffer containing 10 mM EDTA (pH 7.4), and homogenised with a polytron (Kinematica, AG, Littau, Switzerland) for 10 s at 10 000 rpm. After centrifugation for 30 min. at 4° C., the pellet was washed once with the same buffer, and once with cold 20 mM HEPES-NaOH buffer containing 0.1 mM EDTA, (pH 7.4). Protein content was measured using the Pierce method (Socochim, Lausanne, Switzerland) using bovine serum albumin as standard.
After thawing, the membranes were resuspended in cold 50 mM Tris-HCl buffer containing 2 mM MgCl2 and 2 mM CaCl2, (pH 7) (binding buffer). The final concentration of the membranes in the assays was 25 µg protein/ml. Inhibition experiments were performed with membranes incubated with 10 nM [^3H]-LY354740 at room temperature, for 1 hour, in presence of various concentrations of the compound to be tested. Following the incubations, membranes were filtered onto Whatmann GF/C glass fiber filters and washed 5 times with cold binding buffer. Non specific binding was measured in the presence of 10 μM DCG IV. After transfer of the filters into plastic vials containing 10 ml of Ultima-gold scintillation fluid (Packard, Zürich, Switzerland), the radioactivity was measured by liquid scintillation in a Tri-Carb 2500 TR counter (Packard, Zürich, Switzerland).
The inhibition curves were fitted with a four parameter logistic equation giving IC50 values, and Hill coefficients and the Ki values were calculated using the Cheng and Prusoff equation (Cheng, Y. and Prusoff, W. H., Biochem. Pharmacol. 1973, 22, 3099-3108). A small Ki value expresses high affinity of the compound towards the receptor.

T1 sequence (P31421 19-872): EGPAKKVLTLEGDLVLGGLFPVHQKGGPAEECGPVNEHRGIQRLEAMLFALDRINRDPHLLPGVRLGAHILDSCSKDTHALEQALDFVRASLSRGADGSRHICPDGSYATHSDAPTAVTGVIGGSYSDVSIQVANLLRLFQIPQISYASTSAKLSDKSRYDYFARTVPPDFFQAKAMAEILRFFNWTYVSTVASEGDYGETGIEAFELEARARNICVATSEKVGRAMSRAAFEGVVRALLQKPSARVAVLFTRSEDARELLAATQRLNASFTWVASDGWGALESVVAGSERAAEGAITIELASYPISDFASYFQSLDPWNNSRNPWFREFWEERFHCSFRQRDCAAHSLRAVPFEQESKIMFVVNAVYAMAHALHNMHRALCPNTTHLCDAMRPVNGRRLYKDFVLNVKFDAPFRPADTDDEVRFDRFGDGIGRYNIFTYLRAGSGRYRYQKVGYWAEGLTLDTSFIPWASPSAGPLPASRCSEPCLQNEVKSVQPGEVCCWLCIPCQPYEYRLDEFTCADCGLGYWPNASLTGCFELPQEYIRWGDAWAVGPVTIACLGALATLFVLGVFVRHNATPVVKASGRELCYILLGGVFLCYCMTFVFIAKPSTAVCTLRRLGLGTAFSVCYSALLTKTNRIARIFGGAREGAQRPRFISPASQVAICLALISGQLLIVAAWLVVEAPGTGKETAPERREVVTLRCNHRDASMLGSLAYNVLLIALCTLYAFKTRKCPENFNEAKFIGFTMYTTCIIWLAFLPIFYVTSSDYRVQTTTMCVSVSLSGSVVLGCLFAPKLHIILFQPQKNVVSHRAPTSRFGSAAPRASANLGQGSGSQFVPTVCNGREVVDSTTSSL

For `CN(C)c1cc2c(cc1Cl)NC(=O)CC(c1cccc(-c3nc(CO)co3)c1)=N2` [Example 27, 8-Chloro-7-dimethylamino-4-[3-(4-hydroxymethyl-oxazol-2-yl)-phenyl]-1,3-dihydro-benzo[b][1,4]diazepin-2-one], the melting point is 193 to 195 °C. Besides, in series [1], the pKi was 7.41.

With `CN(c1cc2c(cc1Cl)NC(=O)CC(c1cccc(-n3nncc3CO)c1)=N2)C1CC1` [Example 37, 8-Chloro-7-(cyclopropyl-methyl-amino)-4-[3-(5-hydroxymethyl-[1,2,3]triazol-1-yl)-phenyl]-1,3-dihydro-benzo[b][1,4]diazepin-2-one], the pKi in series [1] was 6.80. Turning to `CC(C)CN(C)c1cc2c(cc1Cl)NC(=O)CC(c1cccc(-n3ncnc3CO)c1)=N2` [Example 163, 8-Chloro-4-[3-(5-hydroxymethyl-[1,2,4]triazol-1-yl)-phenyl]-7-(isobutyl-methyl-amino)-1,3-dihydro-benzo[b][1,4]diazepin-2-one], the melting point worked out at 195 °C. The pKi in series [1] was 7.05. Compound `CCCN(C)c1cc2c(cc1C(F)(F)F)NC(=O)CC(c1cccc(-n3cncn3)c1)=N2` [Example 169] yielded a melting point of 185 °C. In series [1], the negative-log Ki (pKi) was 7.57.

In turn, `CC(C)CN(C)c1cc2c(cc1Cl)NC(=O)CC(c1cccc(-n3nncc3CO)c1)=N2` [Example 101, 8-Chloro-4-[3-(5-hydroxymethyl-[1,2,3]triazol-1-yl)-phenyl]-7-(isobutyl-methyl-amino)-1,3-dihydro-benzo[b][1,4]diazepin-2-one] had a melting point of 201 °C. The pKi in series [1] is 7.70. Regarding `CN(C)c1cc2c(cc1C(F)(F)F)NC(=O)CC(c1cccc(-c3cc(CN4CCOCC4)no3)c1)=N2` [Example 54, 7-Dimethylamino-4-[3-(3-morpholin-4-ylmethyl-isoxazol-5-yl)-phenyl]-8-trifluoromethyl-1,3-dihydro-benzo[b][1,4]diazepin-2-one], the melting point is 165 °C. Moreover, in series [1], the negative logarithm of the Ki (pKi) was 6.90. `CN(CC1CC1)c1cc2c(cc1C(F)(F)F)NC(=O)CC(c1ccnc(C#N)c1)=N2` [Example 78, 4-[8-(Cyclopropylmethyl-methyl-amino)-4-oxo-7-trifluoromethyl-4,5-dihydro-3H-benzo[b][1,4]diazepin-2-yl]-pyridine-2-carbonitrile] registered a melting point of 155 °C. For the same compound, the pKi in series [1] is 8.30. As to `CSc1nccn1-c1cccc(C2=Nc3cc(N(C)C)c(C(F)(F)F)cc3NC(=O)C2)c1` [Example 71, 7-Dimethylamino-4-[3-(2-methylsulfanyl-imidazol-1-yl)-phenyl]-8-trifluoromethyl-1,3-dihydro-benzo[b][1,4]diazepin-2-one], the melting point amounted to 192 °C. Besides, the negative logarithm of the Ki (pKi) in series [1] is 7.72. For the compound `CCCN(C)c1cc2c(cc1Cl)NC(=O)CC(c1cccc(-n3nncc3CO)c1)=N2` [Example 29, 8-Chloro-7-(methyl-propyl-amino)-4-[3-(5-hydroxymethyl-[1,2,3]triazol-1-yl)-phenyl]-1,3-dihydro-benzo[b][1,4]diazepin-2-one], the melting point is 178 °C (dec.). Moreover, in series [1], the negative logarithm of the Ki (pKi) was 7.52. For the compound `CCN(CC)c1cc2c(cc1C#N)NC(=O)CC(c1cccc(-c3cc(C)no3)c1)=N2` [Example 107, 8-Diethylamino-2-[3-(3-methyl-isoxazol-5-yl)-phenyl]-4-oxo-4,5-dihydro-3H-benzo[b][1,4]diazepine-7-carbonitrile], the melting point came out at 191 °C. For the same compound, the pKi in series [1] is 8.05. As to `CN(C)c1cc2c(cc1C(F)(F)F)NC(=O)CC(c1cccc(-n3nncc3CNC3CC3)c1)=N2` [Example 82, 4-[3-(5-Cyclopropylaminomethyl-[1,2,3]triazol-1-yl)-phenyl]-7-dimethylamino-8-trifluoromethyl-1,3-dihydro-benzo[b][1,4]diazepin-2-one], the negative logarithm of the Ki (pKi) in series [1] was 7.31. In the case of `CCCN(C)c1cc2c(cc1Cl)NC(=O)CC(c1cccc(-n3nncc3CN3CCC3)c1)=N2` [Example 122, 4-[3-(5-Azetidin-1-ylmethyl-[1,2,3]triazol-1-yl)-phenyl]-8-chloro-7-(methyl-propyl-amino)-1,3-dihydro-benzo[b][1,4]diazepin-2-one], the melting point worked out at 169 °C. Moreover, the negative logarithm of the Ki (pKi) in series [1] was 7.82. The compound `N#Cc1cc(C2=Nc3cc(OCC(F)(F)F)c(C(F)(F)F)cc3NC(=O)C2)ccn1` [Example 88, 4-[4-Oxo-8-(2,2,2-trifluoro-ethoxy)-7-trifluoromethyl-4,5-dihydro-3H-benzo[b][1,4]diazepin-2-yl]-pyridine-2-carbonitrile] yielded a melting point of 252 to 255 °C. In series [1], the pKi is 8.40.

`CCCN(C)c1cc2c(cc1C(F)(F)F)NC(=O)CC(c1cccc(-c3nnc(CO)s3)c1)=N2` [Example 222, 4-[3-(5-Hydroxymethyl-[1,3,4]thiadiazol-2-yl)-phenyl]-7-(methyl-propyl-amino)-8-trifluoromethyl-1,3-dihydro-benzo[b][1,4]diazepin-2-one] came in with a melting point of 193 to 194 °C. Moreover, the negative logarithm of the Ki (pKi) in series [1] is 8.10.

On to `CN(C)c1cc2c(cc1Cl)NC(=O)CC(c1cccc(-c3nc(CO)cs3)c1)=N2` [Example 19, 8-Chloro-7-dimethylamino-4-[3-(4-hydroxymethyl-thiazol-2-yl)-phenyl]-1,3-dihydro-benzo[b][1,4]diazepin-2-one], for which the melting point was 134 °C (dec.). In series [1], the pKi was 7.52.

Compound `CC(C)CN(C)c1cc2c(cc1Cl)NC(=O)CC(c1cccc(-c3nc(CO)cs3)c1)=N2` [Example 186, 8-Chloro-4-[3-(4-hydroxymethyl-thiazol-2-yl)-phenyl]-7-(isobutyl-methyl-amino)-1,3-dihydro-benzo[b][1,4]diazepin-2-one] came in with a melting point of 135 to 136 °C. In addition, the negative logarithm of the Ki (pKi) in series [1] was 8.52.

In turn, `Cc1cc(-c2cccc(C3=Nc4cc(N5CCCC5)c(C#N)cc4NC(=O)C3)c2)on1` [Example 104, 2-[3-(3-Methyl-isoxazol-5-yl)-phenyl]-4-oxo-8-pyrrolidin-1-yl-4,5-dihydro-3H-benzo[b][1,4]diazepine-7-carbonitrile] gave a melting point of 267 °C. On the same count and under the same terms, the value for `CN(C)c1cc2c(cc1C(F)(F)F)NC(=O)CC(c1ccnc(C#N)c1)=N2` [Example 22, 4-(8-Dimethylamino-4-oxo-7-trifluoromethyl-4,5-dihydro-3H-benzo[b][1,4]diazepin-2-yl)-pyridine-2-carbonitrile] was 248 °C. For the compound `Cc1cc(-c2cccc(C3=Nc4cc(N(C)C)c(C(F)(F)F)cc4NC(=O)C3)c2)on1` [Example 18, 7-Dimethylamino-4-[3-(3-methyl-isoxazol-5-yl)-phenyl]-8-trifluoromethyl-1,3-dihydro-benzo[b][1,4]diazepin-2-one], the melting point came to 223 °C. Consider `CN(C)c1cc2c(cc1Cl)NC(=O)CC(c1cccc(-c3cc(CO)on3)c1)=N2` [Example 49, 8-Chloro-7-dimethylamino-4-[3-(5-hydroxymethyl-isoxazol-3-yl)-phenyl]-1,3-dihydro-benzo[b][1,4]diazepin-2-one], for which the melting point was 211 °C (dec.).

The compound `Cc1cc2c(cc1N(C)CC(C)C)N=C(c1cccc(-n3ncnc3CN3CCCC3)c1)CC(=O)N2` [Example 158, 7-(Isobutyl-methyl-amino)-8-methyl-4-[3-(5-pyrrolidin-1-ylmethyl-[1,2,4]triazol-1-yl)-phenyl]-1,3-dihydro-benzo[b][1,4]diazepin-2-one] yielded a melting point of 164 °C.
